Here are results for two molecules from ChEMBL document CHEMBL5726293, “Substituted pyrimidine compounds” (2019).

The structures appear in SMILES notation. Bounds are passed on as bounds.

The assay addresses 3',5'-cyclic-AMP phosphodiesterase 4B (Homo sapiens, UniProt Q07343). The assay is described as follows: cAMP HTRF Assay to Determine the Activity of hPDE4B1: The inhibiting effect of the compounds on the enzyme activity of human PDE4B1 was measured by the quantification of 5′-adenosine monophosphate (5′-AMP), which is formed from 3′,5′-cyclic adenosine monophosphate (cAMP). Human recombinant enzyme, expressed in Sf9 cells, and the HTRF (homogeneous time-resolved fluorescence) detection method were used in the assay.The test compound or water (control) was mixed with the human recombinant PDE4B1 enzyme (4.8 U) in a buffer consisting of 44.4 mM tris-HCl, 5.28 mM MgCl2, 2.64 mM DTT and 0.044% Tween 20 (pH 7.8). After adding the cAMP enzyme substrate (final concentration 40 nM), the mixture was incubated for 30 minutes at room temperature. Then a fluorescence acceptor (Dye2 marked with cAMP), a fluorescence donor (anti-cAMP antibody marked with a europium cryptate) and the non-specific phosphodiesterase inhibitor IBMX (3-isobutyl-1-methylxanthine; final concentration 1 mM) were added. After 60 min the fluorescence transfer, which correlates with the amount of remaining cAMP, was measured with a microplate reader (Rubystar, BMG) at λex=337 nm, λem=620 nm and λem=665 nm. The enzyme activity was calculated from the quotient formed from the measured signal at 665 nm and that at 620 nm. […].

3',5'-cyclic-AMP phosphodiesterase 4B, sequence (Q07343 whole entry): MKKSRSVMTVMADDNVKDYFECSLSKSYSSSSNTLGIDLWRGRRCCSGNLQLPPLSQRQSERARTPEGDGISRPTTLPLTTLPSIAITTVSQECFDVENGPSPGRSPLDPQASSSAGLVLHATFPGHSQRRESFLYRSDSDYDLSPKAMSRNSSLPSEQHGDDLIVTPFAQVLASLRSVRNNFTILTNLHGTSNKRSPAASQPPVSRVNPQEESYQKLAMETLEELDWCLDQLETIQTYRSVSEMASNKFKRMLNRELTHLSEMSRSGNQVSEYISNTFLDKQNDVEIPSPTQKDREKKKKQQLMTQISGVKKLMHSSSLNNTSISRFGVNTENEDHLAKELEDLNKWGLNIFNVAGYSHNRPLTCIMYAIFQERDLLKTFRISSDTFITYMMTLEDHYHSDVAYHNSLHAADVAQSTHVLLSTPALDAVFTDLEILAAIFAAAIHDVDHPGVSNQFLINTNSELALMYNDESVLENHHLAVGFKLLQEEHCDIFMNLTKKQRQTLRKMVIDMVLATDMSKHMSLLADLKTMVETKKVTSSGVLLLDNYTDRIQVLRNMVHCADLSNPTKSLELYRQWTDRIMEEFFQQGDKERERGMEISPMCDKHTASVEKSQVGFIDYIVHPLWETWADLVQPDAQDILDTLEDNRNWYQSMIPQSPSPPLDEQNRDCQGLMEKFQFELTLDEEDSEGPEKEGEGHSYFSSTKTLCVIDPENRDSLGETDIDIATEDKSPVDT

On to `CNCCN(C)C(=O)c1ccc2c(c1)N(c1ncc(-c3ccccc3F)cn1)CC21CC1`, for which the concentration for half-maximal inhibition (IC50) is less than 100 nM.

In the case of `CCc1csc(-c2cnc(N3CC4(CC4)c4ccc(C(=O)N(C)CCO)cc43)nc2)n1`, the IC50 is less than 100 nM.

Usually IC50 stands for the point on the concentration scale where inhibition reaches its midpoint.
